Test results as given in PMC9780942, “Antimicrobial Activity and Immunomodulatory Properties of Acidocin A, the Pediocin-like Bacteriocin with the Non-Canonical Structure” (Membranes, 2022).
Positions of bridges follow the written chain, without caps; N, C: chain ends. No end group written: not given here.

How the values were obtained:
L. monocytogenes EGD = assay type: cell-based, Listeria monocytogenes; conditions: 24 h
Procedure: (§1) Antibacterial activity of recombinant bacteriocins against a number of Gram-positive and Gram-negative bacteria (Table S2) was determined by the method of two-fold serial dilutions in a liquid medium. Two-fold serial dilutions of bacteriocins were prepared in sterile 96-well flat-bottom polystyrene microplates (Eppendorf, Hamburg, Germany) (Cat. No. 0030730.011) in a volume of 50 µL of sterile 0.1% bovine serum albumin (BSA) (SERVA Electrophoresis GmbH, Heidelberg, Germany) to prevent non-specific sorption of peptides to the surface of the plate wells [23]. Mid-log phase bacterial cultures were diluted with the 2x Mueller-Hinton broth (MHB) (Sigma-Aldrich, St. Louis, MO, USA) to a final cell concentration of 10^6 colony forming units (CFU) per mL. To determine the activity of bacteriocins against Listeria and Enterococci, 3% tryptic soy broth (TSB) (Merck-Millipore, Burlington, MA, USA) was used instead of MHB. Aliquots of 50 μL of diluted bacterial suspensions were added to each well of the plate, which was then incubated at 37 °C and 950 rpm for 24 h using thermostatable plate shaker PST-60HL-4 (Biosan, Riga, Latvia). As a negative control, 50 µL of the sterile growth medium (2xMHB or 6% TSB) was added to the wells containing 50 µL of 0.1% BSA. The values of the minimum inhibitory concentrations (MIC) were determined as the minimum concentration of the peptide, at which there was no visible growth of bacterial culture. Incubation for 2 h with 20 µg/mL chromogenic substrate resazurin (Sigma-Aldrich, St. Louis, MO, USA) was used to detect viable bacterial cells if they were difficult to visually detect. To study the effect of inorganic salts on the antimicrobial activity of bacteriocins, antibacterial activity assay was carried out in MHB medium supplemented with 0.9% NaCl.

S. aureus 209P = assay type: cell-based; conditions: 24 h
Procedure: as §1

[1] = tested on: P. aeruginosa MDR CI 1995; assay type: cell-based; conditions: MDR CI 1995, 24 h
Procedure: as §1

B. licheniformis B-511 = assay type: cell-based; conditions: 24 h
Procedure: as §1

L. lactis MK66 = assay type: cell-based; conditions: MK66, 24 h
Procedure: as §1

A. baumannii XDR CI 2675 = assay type: cell-based; conditions: XDR CI 2675, 24 h
Procedure: as §1

E. coli XDR CI 1057 = assay type: cell-based; conditions: XDR CI 1057, 24 h
Procedure: as §1

E. coli ML-35p = assay type: cell-based; conditions: 24 h
Procedure: as §1

M. phlei Ac-1221 = assay type: cell-based; conditions: 24 h
Procedure: as §1

E. coli SQ110 = assay type: cell-based; conditions: SQ110, 24 h
Procedure: as §1

B. subtilis B-886 = assay type: cell-based; conditions: B-886, 24 h
Procedure: as §1

E. coli ATCC 25922 = assay type: cell-based; conditions: ATCC 25922, 24 h
Procedure: as §1

M. luteus Ac-2229 = assay type: cell-based; conditions: Ac-2229, 24 h
Procedure: as §1

[2] = tested on: E. coli ML-35p outer membrane; assay: Outer membrane permeability assay with nitrocefin; assay type: cell-based; conditions: PBS pH 7.4 with NaCl, 35 °C, absorbance 492 nm, three independent experiments
Procedure: (§2) The ability of the peptides to disrupt the integrity of bacterial membranes was assessed using chromogenic substrates that are unable to enter the intact cell. For these assays, E. coli strain ML-35p was chosen that constitutively expresses β-lactamase (secreted into the periplasmic space), β-galactosidase (that is active in cytoplasm), and lacks lactose permease. Nitrocefin, which is a substrate for lactamase, served as an indicator of increased outer membrane permeability. o-Nitrophenyl-β-D-galactopyranoside (ONPG), a substrate for […], was used to assess the integrity of the cytoplasmic membrane. The bacterial cultures were grown to stationary phase in 3% TSB medium at 37 °C overnight. The cells were washed three times with cold 10 mM phosphate-buffered saline (PBS), pH 7.4 ([…], 2.7 mM KCl, 10 mM Na2HPO4, 1.76 mM KH2PO4), and diluted to the concentration of 3.3 × 10^7 CFU/mL with 10 mM PBS (pH 7.4), containing increased concentration of NaCl (1.2%, or 205 mM) and dissolved nitrocefin (Merck-Millipore, Burlington, MA, USA) or ONPG (AppliChem GmbH, Darmstadt, Germany). […] The plate was incubated at 35 °C, 500 rpm, and the absorbance of the hydrolysis products of ONPG or nitrocefin was measured spectrophotometrically at regular intervals at 405 nm or 492 nm, respectively, using AF2200 microplate reader (Eppendorf, Hamburg, Germany). […]

L. lactis MK43 = assay: Antibacterial activity assay (MIC), two-fold serial dilutions in liquid medium; assay type: cell-based; conditions: MHB, 0.1% BSA, 37 °C, 24 h, no visible growth
Procedure: as §1

[3] = tested on: E. coli ML-35p cytoplasmic membrane; assay: Cytoplasmic membrane permeability assay with ONPG; assay type: cell-based; conditions: PBS pH 7.4 with NaCl, 35 °C, absorbance 405 nm, three independent experiments
Procedure: as §2

## KTYYGTNGVHCTKNSLWGKVRLKNVKYDQNTTYIGRLQDILLGWATGAFGKTFH [OR-7(VI)]
L. monocytogenes EGD
  Minimum Inhibitory Concentration: >64 µM
S. aureus 209P
  Minimum Inhibitory Concentration: >32 µM
[1]
  Minimum Inhibitory Concentration: >32 µM
B. licheniformis B-511
  Minimum Inhibitory Concentration: 8 µM
  Minimum inhibitory concentration in the presence of NaCl: > 32 µM
L. lactis MK66
  Minimum Inhibitory Concentration: 4 µM
  Minimum inhibitory concentration in the presence of NaCl: > 32 µM
A. baumannii XDR CI 2675
  Minimum Inhibitory Concentration: >32 µM
E. coli XDR CI 1057
  Minimum Inhibitory Concentration: >64 µM
E. coli ML-35p
  Minimum Inhibitory Concentration: >32 µM
M. phlei Ac-1221
  Minimum Inhibitory Concentration: 32 µM
E. coli SQ110
  Minimum Inhibitory Concentration: >64 µM
B. subtilis B-886
  Minimum Inhibitory Concentration: 16 µM
  Minimum inhibitory concentration in the presence of NaCl: > 32 µM
E. coli ATCC 25922
  Minimum Inhibitory Concentration: >32 µM
M. luteus Ac-2229
  Minimum Inhibitory Concentration: >32 µM
[2]
  Effect on outer membrane integrity (nitrocefin hydrolysis kinetics): reduced
L. lactis MK43
  Minimum Inhibitory Concentration: >32 µM

## TYYGTNGVSCNKKGCSVDWGKAISIIGNNSAANLATGGAAGWKS (disulfide 10-15) [AviA(T)]
L. monocytogenes EGD
  Minimum Inhibitory Concentration: >32 µM
S. aureus 209P
  Minimum Inhibitory Concentration: >32 µM
[1]
  Minimum Inhibitory Concentration: >32 µM
B. licheniformis B-511
  Minimum Inhibitory Concentration: >32 µM
L. lactis MK66
  Minimum Inhibitory Concentration: >32 µM
A. baumannii XDR CI 2675
  Minimum Inhibitory Concentration: >32 µM
E. coli XDR CI 1057
  Minimum Inhibitory Concentration: >32 µM
E. coli ML-35p
  Minimum Inhibitory Concentration: >32 µM
M. phlei Ac-1221
  Minimum Inhibitory Concentration: >32 µM
E. coli SQ110
  Minimum Inhibitory Concentration: >32 µM
B. subtilis B-886
  Minimum Inhibitory Concentration: >32 µM
E. coli ATCC 25922
  Minimum Inhibitory Concentration: >32 µM
M. luteus Ac-2229
  Minimum Inhibitory Concentration: >32 µM
[3]
  Effect on cytoplasmic membrane integrity (ONPG hydrolysis kinetics): melittin >> acidocin A ≈ pediocin box mutants > peptides without a disulfide bond > avicin A >> AviA(T)
[2]
  Effect on outer membrane integrity (nitrocefin hydrolysis kinetics): with the exception of AviA(T), were able to disrupt its integrity
L. lactis MK43
  Minimum Inhibitory Concentration: >32 µM
